Where a name gives a salt, the structure may show the parent alone.
What follows are compounds tested on cholera toxin-induced intestinal fluid secretion (assay: animal or person). Conditions: Rattus norvegicus, sc, read-out: Inhibitory Doses (ID50's).
Type: in vivo, rat (female Charles River)

SMILES	ED50 [mg/kg]
Cc1c(NC2=NCCC2)cccc1OC(=O)C1CC1.Cl [Example 22, 3-[(3,4-dihydro-2H-pyrrol-5-yl)amino]-2-methylphenyl cyclopropanecarboxylate hydrochloride]	6.8
Cc1c(NC2=NCCC2)cccc1OC(=O)c1ccc(Cl)cc1 [Example 20, 3-[(3,4-dihydro-2H-pyrrol-5-yl)amino]-2-methylphenyl 4-chlorobenzoate hydrochloride 1/4 ethanol]	10.6
COc1ccccc1C(=O)Oc1cccc(NC2=NCCC2)c1C.Cl [Example 15, 3-[(3,4-dihydro-2H-pyrrol-5-yl)amino]-2-methylphenyl 2-methoxybenzoate hydrochloride]	6.2
Cc1cc(OC(=O)C(C)(C)C)ccc1NC1=NCCC1 [Example 11, 4-[(3,4-dihydro-2H-pyrrol-5-yl)amino]-3-methylphenyl 2,2-dimethylpropanoatehydrochloride]	9
COc1ccc(C(=O)Oc2cccc(NC3=NCCC3)c2C)cc1 [Example 17, 3-[(3,4-dihydro-2H-pyrrol-5-yl)amino]-2-methylphenyl 4-methoxybenzoate hydrochloride 5/8 hydrate]	9.5
COC(=O)c1ccc(NC2=NCCC2)c(C)c1 [reference compound]	74
Cc1c(NC2=NCCC2)cccc1OC(=O)C(C)(C)C [Example 10, 3-[(3,4-dihydro-2H-pyrrol-5-yl)amino]-2-methylphenyl 2,2-dimethylpropanoatehydrochloride 1/4 hydrate]	6.4
Cc1c(NC2=NCCC2)cccc1OC(=O)C1CCCCC1.Cl [Example 14, 3-[(3,4-dihydro-2H-pyrrol-5-yl)amino]-2-methylphenyl cyclohexanecarboxylate hydrochloride]	8.1
Cc1c(O)cccc1NC1=NCCC1.Cl [Example 3, 3-[(3,4-dihydro-2H-pyrrol-5-yl)amino]-2-methylphenol hydrochloride]	8.3
Cc1ccc(C(=O)Oc2cccc(NC3=NCCC3)c2C)cc1.Cl [Example 19, 3-[(3,4-dihydro-2H-pyrrol-5-yl)amino]-2-methylphenyl 4-methylbenzoate hydrochloride]	5.9
Cc1c(NC2=NCCC2)cccc1OC(=O)c1ccco1 [Example 24, 3-[(3,4-dihydro-2H-pyrrol-5-yl)amino]-2-methylphenyl furan-2-carboxylate hydrochloride 1/8 methanol]	8.3
Cc1c(NC2=NCCC2)cccc1OC(=O)c1ccc(Cl)c(Cl)c1.Cl [Example 21, 3-[(3,4-dihydro-2H-pyrrol-5-yl)amino]-2-methylphenyl 3,4-dichlorobenzoate hydrochloride]	5
Oc1cccc(NC2=NCCC2)c1 [Example 5, 3-[3,4-dihydro-2H-pyrrol-5-yl)amino]phenol hydrochloride]	21.3
Cc1ccccc1C(=O)Oc1cccc(NC2=NCCC2)c1C.Cl [Example 18, 3-[(3,4-dihydro-2H-pyrrol-5-yl)amino]-2-methylphenyl 2-methylbenzoate hydrochloride]	40.5
CC(=O)Oc1cccc(NC2=NCCC2)c1C.Cl [Example 16, 3-[(3,4-dihydro-2H-pyrrol-5-yl)amino]-2-methylphenyl acetate hydrochloride]	10.1
Cc1c(NC2=NCCC2)cccc1OC(=O)C12CC3CC(CC(C3)C1)C2 [Example 23, 3-[(3,4-dihydro-2H-pyrrol-5-yl)amino]-2-methylphenyl adamantane-1-carboxylate hydrochloride 1/4 hydrate]	9.1
Cc1c(NC2=NCCC2)cccc1OC(=O)c1ccccc1 [Example 12, 3-[(3,4-dihydro-2H-pyrrol-5-yl)amino]-2-methylphenyl benzoate hydrobromide 1/4 hydrate]	5.7
Cc1cc(O)ccc1NC1=NCCC1 [Example 6, 4-[(3,4-dihydro-2H-pyrrol-5-yl)amino]-3-methylphenol 1/4 hydrate]	6.5

Same assay, conditions: antisecretory antidiarrheal activity, qualitative statement

SMILES	activity in the cholera-induced intestinal fluid secretion assay (in words)
CN=C(N)NC(=O)Nc1c(C)cccc1C [Lidamidine, reference compound]	active

Same assay, conditions: subcutaneous route; class symbol; screening doses 10 and 20 mg/kg

SMILES	Inhibitory Doses (ID50's)
COc1ccc(NC2=NCCC2)c(C)c1 [reference compound]	I
COc1cccc(NC2=NCCC2)c1C [reference compound]	I

Reference: patent publication US4579951A (priority 1984, dated 1986)
